Measured values from patent EP1688137A1, “SPM 927 for add-on therapy of schizophrenia” (SCHWARZ PHARMA AG, priority 2005, dated 2006).

Tested on: C57BL/6J mice
Test: prepulse inhibition (PPI) of the acoustic startle reflex, animal model for schizophrenia
Format: in vivo
Conditions: 30 min prior to testing, n=12
Method: Some anti-epileptic drugs have proven pre-clinical and/or clinical efficacy as add-on therapy for schizophrenia. SPM 927 was tested in a simple animal model with predictive validity for schizophrenia (i.e. prepulse inhibition (PPI) of the acoustic startle reflex). SPM 927 was tested alone and in combination with the atypical antipsychotic drug clozapine.
The acoustic startle is an unconditioned reflex response to an external auditory stimulation. PPI refers to the reduction in the startle response caused by the presentation of a low-intensity auditory stimulus prior to the startle stimulus. The PPI paradigm is the choice for the study of schizophrenia and antipsychotic action due to the similarities between the results from human and rodent studies. Antipsychotic drugs, such as clozapine, result in a dose-dependent increase in PPI in mice. Thus, an increase of PPI in normal mice may be indicative of antipsychotic efficacy.
C57BL/6J mice obtained from the Jackson Laboratory, Bar Harbor, Maine were received at the age of 6 weeks and were assigned unique identification numbers (tail marked). Animals were housed 4 per cage in polycarbonate cages with filter tops and acclimated for 7 days. All animals were examined, handled, and weighed prior to initiation of the study to assure adequate health and suitability and to minimize non-specific stress associated with manipulation.
During the course of the study, 12/12 light/dark cycles and a room temperature of 20 to 23°C were maintained with a relative humidity maintained around 50%. Chow and water were provided ad libitum for the duration of the study. Each mouse was randomly assigned across the treatment groups and balanced by cage numbers. The test was performed during the animal's light cycle phase. Twelve animals were used in each treatment group.
SPM 927 was dissolved in Saline (0.9% NaCl in sterile H2O). Clozapine was dissolved in 1 % Tween 80 in sterile H2O at a final pH of 6.0. All compounds were administered intraperitoneal (ip) (volume injection: 10 ml/kg). SPM 927 was administered at doses of 1, 10 and 30 mg/kg and Clozapine at a dose of 3 mg/kg. Doses are expressed as mg of salt. Control mice were administered saline (vehicle 1, VEH 1) or 1% Tween 80 (vehicle 2, VEH 2) at a pH of 6.0. The drug treatments were balanced across days and the animals only used once. All tests were conducted blind. All compounds were administered 30 mins prior to testing.
Animals were placed in the PPI chambers (Med Associates) for a 5 min session of white noise (70 dB) habituation. After the acclimation period the test session was automatically started. The session started with an habituation block of 6 presentations of the startle stimulus alone, followed by 10 PPI blocks of 6 different types of trials. Trial types are: null (no stimuli), startle (120 dB), startle plus prepulse (4, 8 and 12 dB over background noise i.e. 74, 78 or 82 dB) and prepulse alone (82 dB). Trial types were presented at random within each block. Each trial started with a 50 ms null period during which baseline movements are recorded. There was a subsequent 20 ms period during which prepulse stimuli were presented and responses to the prepulse measured. After further 100 ms the startle stimuli were presented for 40 ms and responses recorded for 100 ms from startle onset. Responses were sampled every ms. The inter-trial interval was variable with an average of 15 s (range from 10 to 20 s). In startle alone trials the basic auditory startle is measured and in prepulse plus startle trials the amount of inhibition of the normal startle is determined and expressed as a percentage of the basic startle response (from startle alone trials), excluding the startle response of the first habituation block. Eight animals were tested at one time.
Twelve animals were tested in each group. […]

Row | Structure (SMILES) | Mean PPI (SPM 927 3 mg/kg ip / VEH 2 (alone)) | Mean PPI (SPM 927 3 mg/kg ip in combination with clozapine 3 mg/kg ip) | Mean PPI (SPM 927 10 mg/kg ip / VEH 2 (alone)) | Mean PPI (SPM 927 10 mg/kg ip in combination with clozapine 3 mg/kg ip) | Mean PPI (SPM 927 30 mg/kg ip / VEH 2 (alone)) | Mean PPI (SPM 927 30 mg/kg ip in combination with clozapine 3 mg/kg ip) | Mean PPI (VEH 1 / clozapine 3 mg/kg ip, PPI expressed as percentage of basic startle response)
1 | COC[C@@H](NC(C)=O)C(=O)NCc1ccccc1 [SPM 927, (R)-2-acetamide-N-benzyl-3-methoxypropionamide] | 29±3 | 43±2 | 34±3 | 45±2 | 27±2 | 57±5 | –
2 | CN1CCN(C2=Nc3cc(Cl)ccc3Nc3ccccc32)CC1 [CLOZ, clozapine, reference compound] | – | – | – | – | – | – | 45±2
